# pIC50: −log10 of the molar value.
# Columns and labels:
# [1] = biological target: DPP1 in HL-60 cells (Homo sapiens, UniProt P53634); test: DPP1 Cell IC50 assay; format: cell-based; set-up: host or cells: HL-60 cells; conditions: 60 min pre-incubation, H-Gly-Phe-AFC substrate, average of n runs, read-out: Avg. IC50 (DPP1 Cell IC50 value ranges)
# Description: Example 99. DPP1 Cell IC50 assay
# HL-60 cells (ATCC; Manassas, VA) were maintained in RPMI-1640 supplemented with 20% heat-inactivated FBS and 1× Antibiotic Antimycotic (Cytiva; Marlborough, MA). Media was changed every three to four days and cells were not allowed to exceed 1×10^6 cells per mL. Prior to assay, cells were collected by centrifugation at 500 rcf for 3 minutes, resuspended in PBS and counted. Cells were diluted in PBS to a concentration of 5×10^5 live cells per mL and transferred to black 96-well plates for assay, 60 μL per well. Test articles were diluted in PBS plus 0.5% DMSO, and 20 μL was added to each assay well. Compound was allowed to pre-incubate with cells with gentle shaking at 100 rpm for 60 minutes at 37° C. in a cell culture incubator maintained at 5% CO2, after which 20 μL of 500 μM H-Gly-Phe-AFC substrate (MP Biomedicals; Solon, OH) was added to each well. Plates were returned to the incubator with shaking at 100 rpm for 30 minutes, after which fluorescence was measured at Excitation/Emission 400/505 nm. % Inhibition was calculated from RFU values compared to control cell wells that received only PBS plus 0.5% DMSO. IC50 values for each compound were calculated via the XLFit (IDBS Version 5.3.1.3) Add-On to Microsoft Excel using the four parameter fit equation y=(A+((B−A)/(1+((C/x)^D)))), which appears as equation number 205 (4 Parameter Logistic Model or Sigmoidal Dose-Response Model) in XLFit. IC50 was defined as the compound concentration at which 50% of enzyme activity was inhibited when compared to the no-compound control.
# [2] = biological target: human DPP1 enzyme (Homo sapiens, UniProt P53634); test: Human DPP1 Enzyme IC50 Assay; format: biochemical; set-up: was first proteolytically processed into its mature form using recombinant human cathepsin L; purchased R&D Systems; conditions: activated recombinant human DPP1, 400 μM H-Gly-Arg-AMC, 10 minutes pre-incubation at 37° C., pH 6.0; average of n runs; read-out: Avg. IC50 (Human DPP1 enzyme IC50 value ranges)
# Description: Example 97. Human DPP1 Enzyme IC50 Assay
# Recombinant human DPP1 enzyme (R&D Systems; Minneapolis, MN) was first proteolytically processed into its mature form using recombinant human cathepsin L (R&D Systems) in a buffer consisting of 20 mM citric acid pH 4.5, 150 mM NaCl, 1 mM EDTA and 10 mM DTT. Test articles were applied to activated human DPP1 enzyme in Assay Buffer (25 mM MES pH 6.0, 50 mM NaCl, 5 mM DTT) in a total reaction volume of 125 μL. 25 μL of compound in Assay Buffer plus 5% DMSO was first added to 50 μL of activated human DPP1 enzyme at a concentration of 1 ng/μL and allowed to pre-incubate for 10 minutes at 37° C. after which 50 μL of 1000 μM H-Gly-Arg-AMC substrate (Bachem; St. Torrance, CA) was added, giving final substrate concentration of 400 μM and a final DMSO concentration of 1%. Substrate cleavage was measured for 90 minutes at 37° C., with fluorescence at Excitation/Emission 350/450 nm measured every 5 minutes. DPP1 concentration was interpolated based on its activity relative to a standard curve of activated human recombinant DPP1 enzyme. IC50 values for each compound were calculated via the XLFit (IDBS Version 5.3.1.3) Add-On to Microsoft Excel using the four parameter fit equation y={A+[(B−A)]/[1+((C/x)^D)]}, which appears as equation number 205 (4 Parameter Logistic Model or Sigmoidal Dose-Response Model) in XLFit. Default constraints were used for each Parameter. IC50 was defined as the compound concentration at which 50% of enzyme activity was inhibited when compared to the no-compound control.
# Chain of DPP1 in HL-60 cells (P53634 25-463): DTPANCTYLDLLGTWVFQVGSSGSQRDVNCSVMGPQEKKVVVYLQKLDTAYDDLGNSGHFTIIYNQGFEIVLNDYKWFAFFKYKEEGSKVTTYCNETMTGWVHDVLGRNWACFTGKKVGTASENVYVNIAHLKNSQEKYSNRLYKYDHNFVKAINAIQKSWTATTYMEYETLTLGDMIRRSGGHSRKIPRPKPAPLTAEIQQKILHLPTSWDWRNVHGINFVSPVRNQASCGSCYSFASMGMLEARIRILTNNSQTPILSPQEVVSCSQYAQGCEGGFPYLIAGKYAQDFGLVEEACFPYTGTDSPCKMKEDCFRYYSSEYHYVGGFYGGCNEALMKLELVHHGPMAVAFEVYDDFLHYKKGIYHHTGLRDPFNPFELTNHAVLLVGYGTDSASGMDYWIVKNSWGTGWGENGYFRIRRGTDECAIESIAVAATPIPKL
# Chain of human DPP1 enzyme (P53634 25-134 limits assumed): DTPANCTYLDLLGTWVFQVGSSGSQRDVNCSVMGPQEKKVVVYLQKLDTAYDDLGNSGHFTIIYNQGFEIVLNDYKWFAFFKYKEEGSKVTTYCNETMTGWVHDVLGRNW
# Chain of human DPP1 enzyme (P53634 231-394 limits assumed): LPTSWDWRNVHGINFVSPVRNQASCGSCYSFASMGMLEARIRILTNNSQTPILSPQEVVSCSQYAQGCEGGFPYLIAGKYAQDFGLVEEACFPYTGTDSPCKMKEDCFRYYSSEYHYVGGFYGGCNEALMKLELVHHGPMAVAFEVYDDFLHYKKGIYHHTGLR
# Chain of human DPP1 enzyme (P53634 395-463 limits assumed): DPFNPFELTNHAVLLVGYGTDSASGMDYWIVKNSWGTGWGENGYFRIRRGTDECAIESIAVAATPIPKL
SMILES,pIC50 [1],pIC50 [2]
CO[C@@H]1CCNC[C@@H](C(=O)N[C@H](C#N)Cc2ccc(-c3ccc4c(c3)CCC(=O)N4C)cc2F)OC1 [Compound A151],8.60 to 9.00,> 8.30
"Cc1cn2cc(-c3cc4sc(C[C@@H](C#N)NC(=O)[C@@H]5CNCCCCO5)cc4s3)cc2c(C)n1 (single isomer, unassigned) [Compound A30]",< 8.60,< 7.82
N#C[C@H](Cc1ccc(-c2nc3c(s2)CS(=O)(=O)CC3)cc1)NC(=O)[C@@H]1CNCCCO1 [Compound A6],< 8.60,< 7.82
"CO[C@@H]1CCNC[C@@H](C(=O)N[C@H](C#N)Cc2ncc(-c3ccc4c(F)nn(C)c4c3)s2)OC1 [Compound A36, (2S,7R)—N-[(1S)-1-cyano-2-[5-(3-fluoro-1-methylindazol-6-yl)-1,3-thiazol-2-yl]ethyl]-7-methoxy-1,4-oxazocane-2-carboxamide]",< 8.60,< 7.82
CO[C@H]1CCO[C@H](C(=O)N[C@H](C#N)Cc2ccc(-c3ccc4c(c3)CCC(=O)N4C)cc2)CNC1 [Compound A147],8.60 to 9.00,7.82 to 8.30
C[C@@H]1NC[C@@H](C(=O)N[C@H](C#N)Cc2ccc(-c3ccc4c(F)nn(C)c4c3)cc2)OC[C@@H]1O [Compound A160],8.60 to 9.00,7.82 to 8.30
N#C[C@H](Cc1ccc(-c2ccc3c(c2)[C@]2(CCCN(c4ccsc4)C2)SC3)cc1)NC(=O)[C@@H]1CNCCCO1 [Compound I13],< 8.60,< 7.82
"CO[C@@H]1CCNC[C@@H](C(=O)N[C@H](C#N)Cc2ncc(-c3ccc4c(n3)CCCN4)s2)OC1 [Compound A37, (2S,7R)—N—((S)-1-cyano-2-(5-(5,6,7,8-tetrahydro-1,5-naphthyridin-2-yl)thiazol-2-yl)ethyl)-7-methoxy-1,4-oxazocane-2-carboxamide]",< 8.60,< 7.82
"CO[C@H]1CCO[C@H](C(=O)N[C@H](C#N)Cc2ccc(-c3cc4c(C)nc(C)cn4c3)s2)CNC1 [Compound A44, (2S,6S)—N-[(1S)-1-cyano-2-(5-{1,3-dimethylpyrrolo[1,2-a]pyrazin-7-yl}thiophen-2-yl)ethyl]-6-methoxy-1,4-oxazocane-2-carboxamide]",< 8.60,< 7.82
"Cn1c(=O)oc2cc3c(cc21)-c1cc(F)c(CC(C#N)NC(=O)[C@@H]2CNCCCCO2)cc1OC3 (single isomer, unassigned) [Compound C6]",< 8.60,< 7.82
"COC1CO[C@H](C(=O)N[C@H](C#N)Cc2ccc(-c3ccc4c(c3)C3(CC4)CCN(C)CC3)cc2F)CNC1C (stereo partly drawn) [Compound E6, (2S)—N-[(1S)-1-cyano-2-(2-fluoro-4-{1′-methyl-2,3-dihydrospiro[indene-1,4′-piperidin]-6-yl}phenyl)ethyl]-6-methoxy-5-methyl-1,4-oxazepane-2-carboxamide]",< 8.60,> 8.30
"CN1CCCc2ncc(-c3ccc(C[C@@H](C#N)NC(=O)[C@@H]4CNCCCO4)cc3)cc21 [Compound A40, (2S)—N-[(1S)-1-cyano-2-[4-(5-methyl-7,8-dihydro-6H-1,5-naphthyridin-3-yl)phenyl]ethyl]-1,4-oxazepane-2-carboxamide]",< 8.60,< 7.82
"N#C[C@H](Cc1ccc(-c2ccc3c(c2)C2(CCNC2)OC3=O)cc1)NC(=O)[C@@H]1CNCCCO1 (stereo partly drawn) [Compound 25, (2S)—N-[(1S)-1-cyano-2-(4-{3-oxospiro[2-benzofuran-1,3′-pyrrolidin]-6-yl}phenyl)ethyl]-1,4-oxazepane-2-carboxamide]",< 8.60,< 7.82
"CO[C@H]1CCO[C@H](C(=O)NC(C#N)Cc2cc3c(cc2F)-c2cc(C4COC4)c(F)cc2CO3)CNC1 (mixture of isomers) [Compound B15, (2S,6S)—N-{1-cyano-2-[2,8-difluoro-9-(oxetan-3-yl)-6H-benzo[c]chromen-3-yl]ethyl}-6-methoxy-1,4-oxazocane-2-carboxamide]",8.60 to 9.00,> 8.30
"N#C[C@H](Cc1ccc(-c2ccc3c(c2)C2(CCNCC2)C(=O)C3)cc1)NC(=O)[C@@H]1CNCCCO1 [Compound 22, (2S)—N-[(1S)-1-cyano-2-(4-{2-oxo-3H-spiro[indene-1,4′-piperidin]-6-yl}phenyl)ethyl]-1,4-oxazepane-2-carboxamide]",< 8.60,7.82 to 8.30

# Further lines, results first:
pIC50 [1],pIC50 [2],SMILES
< 8.60,7.82 to 8.30,"CN1C(=O)C2(CCNCC2)c2cc(-c3ccc(C[C@@H](C#N)NC(=O)[C@@H]4CNCCCO4)cc3)ccc21 [Compound 23, (2S)—N-[(1S)-1-cyano-2-(4-{1-methyl-2-oxospiro[indole-3,4′-piperidin]-5-yl}phenyl)ethyl]-1,4-oxazepane-2-carboxamide]"
< 8.60,< 7.82,"N#C[C@H](Cc1ccc(-c2cnc3c(c2)COCCN3)cc1)NC(=O)[C@@H]1CNCCCO1 [Compound A9, (2S)—N-[(1S)-1-cyano-2-(4-{1H,2H,3H,5H-pyrido[2,3-e][1,4]oxazepin-7-yl}phenyl)ethyl]-1,4-oxazepane-2-carboxamide]"
< 8.60,< 7.82,N#C[C@H](Cc1ccc(-c2ccc3c(c2)C[C@]2(CCN(c4nccs4)C2)OC3)cc1)NC(=O)[C@@H]1CNCCCO1 [Compound I14]
< 8.60,7.82 to 8.30,N#C[C@H](Cc1ccc(-c2ccc3c(c2)C2(CCN(C4COC4)CC2)COC3)cc1)NC(=O)[C@@H]1CNCCCO1 [Compound I5]
< 8.60,< 7.82,"N#C[C@H](Cc1ccc(NC(=O)c2csc(-c3cscn3)n2)cc1)NC(=O)[C@@H]1CNCCCO1 [Compound D7, (2S)—N-[(1S)-1-cyano-2-{4-[2-(1,3-thiazol-4-yl)-1,3-thiazole-4-amido]phenyl}ethyl]-1,4-oxazepane-2-carboxamide]"
< 8.60,7.82 to 8.30,"N#C[C@H](Cc1ccc(-c2ccc3c(c2)C2(CCNCC2)CC3=O)cc1)NC(=O)[C@@H]1CNCCCO1 [Compound 30, (2S)—N-[(1S)-1-cyano-2-(4-{3-oxo-2H-spiro[indene-1,4′-piperidin]-6-yl}phenyl)ethyl]-1,4-oxazepane-2-carboxamide]"
< 8.60,< 7.82,"N#C[C@H](Cc1ccc(-c2ccc3c(c2)N(C(N)=O)CCC3)cc1)NC(=O)[C@@H]1CNCCCO1 [Compound A20, 7-{4-[(2S)-2-cyano-2-[(2S)-1,4-oxazepan-2-ylformamido]ethyl]phenyl}-3,4-dihydro-2H-quinoline-1-carboxamide]"
8.60 to 9.00,< 7.82,"CO[C@@H]1CCNC[C@@H](C(=O)N[C@H](C#N)Cc2ccc(-c3cc4c(C)nc(C)cn4c3)s2)OC1 [Compound A34, (2S,7R)—N-[(1S)-1-cyano-2-(5-{1,3-dimethylpyrrolo[1,2-a]pyrazin-7-yl}thiophen-2-yl)ethyl]-7-methoxy-1,4-oxazocane-2-carboxamide]"
< 8.60,< 7.82,N#C[C@H](Cc1ccc(-c2ccc3c(c2)[C@]2(CCCN(C#N)C2)SC3)cc1)NC(=O)[C@@H]1CNCCCO1 [Compound I15]
< 8.60,< 7.82,"CO[C@H]1CCO[C@H](C(=O)N[C@H](C#N)Cc2ccc(-c3ccc4oc(=O)n(C)c4c3)s2)CNC1 [Compound F3, (2S,6S)—N-[(1S)-1-cyano-2-[5-(3-methyl-2-oxo-1,3-benzoxazol-5-yl)thiophen-2-yl]ethyl]-6-methoxy-1,4-oxazocane-2-carboxamide]"
> 9.00,> 8.30,COC1CNC[C@@H](C(=O)N[C@H](C#N)Cc2ccc(-c3ccc4c(c3)CCC(=O)N4C)cc2)OC1 (stereo partly shown) [Compound A146]

# Source: patent US20260008760A1, “DIPEPTIDYL PEPTIDASE 1 INHIBITORS AND USES THEREOF” (Insmed Incorporated, priority 2024, published 2026)
